Results reported in PMC5908784, “Extracellular loops 2 and 3 of the calcitonin receptor selectively modify agonist binding and efficacy” (Biochemical Pharmacology, 2018).
Numbering of substitutions follows the chain as printed. Where a SMILES comes first, the peptide text is derived from it. Bridges are numbered along the chain shown (N, C = ends).

Columns and labels:
Experiment in all cases: Heterologous whole cell competition binding
Conditions in all cases: heterologous competition of 125I-sCT(8-32), whole cells, mean ± S.E.M., SEM
[1] = molecular target: T1, hCTR P360A (Homo sapiens, UniProt P30988, P360A)
T1 construct: expressed in transfected cells
T1 sequence (P30988 25-474 P360A): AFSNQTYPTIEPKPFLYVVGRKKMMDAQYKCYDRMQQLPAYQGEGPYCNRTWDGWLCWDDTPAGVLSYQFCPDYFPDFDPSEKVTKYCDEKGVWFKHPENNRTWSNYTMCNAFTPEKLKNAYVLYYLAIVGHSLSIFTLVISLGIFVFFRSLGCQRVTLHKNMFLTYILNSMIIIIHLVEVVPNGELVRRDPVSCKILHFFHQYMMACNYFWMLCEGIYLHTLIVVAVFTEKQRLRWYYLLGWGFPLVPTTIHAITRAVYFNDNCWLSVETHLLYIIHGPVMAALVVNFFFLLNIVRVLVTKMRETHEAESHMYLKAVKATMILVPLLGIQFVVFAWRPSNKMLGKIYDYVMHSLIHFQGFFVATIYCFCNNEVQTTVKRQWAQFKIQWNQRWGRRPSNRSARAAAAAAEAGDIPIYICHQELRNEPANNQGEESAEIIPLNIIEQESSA
Description: (§1) Following overnight incubation non-bound ligand was removed and radioactivity was determined using a gamma counter.
(§2) Data were corrected for radioligand occupancy using the Cheng-Prusoff equation in Prism; as such data are reported as pKi. Emax and EC50 were estimated from concentration-response curves using with a 3-parameter logistic equation in Prism (v7). These values are a composite of functional affinity, efficacy and stimulus response coupling. […] Significance was accepted at P < 0.05.

[2] = molecular target: T2, hCTR T280A (Homo sapiens, UniProt P30988, T280A)
T2 construct: expressed in transfected cells
T2 sequence (P30988 25-474 T280A): T1 sequence (P30988 25-474 P360A) with T256A, A336P
Description: as §1, §2

[3] = molecular target: T3, hCTR T295A (Homo sapiens, UniProt P30988, T295A)
T3 construct: c-Myc (N); expressed in transfected cells
T3 sequence (P30988 25-474 T295A): T1 sequence (P30988 25-474 P360A) with T271A, A336P
Description: as §1, §2

[4] = molecular target: T4, hCTR V283A (Homo sapiens, UniProt P30988, V283A)
T4 construct: expressed in transfected cells
T4 sequence (P30988 25-474 V283A): T1 sequence (P30988 25-474 P360A) with V259A, A336P
Description: as §1, §2

[5] = molecular target: T5, hCTR W361A (Homo sapiens, UniProt P30988, W361A)
T5 construct: expressed in transfected cells
T5 sequence (P30988 25-474 W361A): T1 sequence (P30988 25-474 P360A) with A336P, W337A
Description: as §1, §2

Ki [1]: 50.1 nM | Ki [2]: 6.31 nM | Ki [3]: 32.4 nM | Ki [4]: 15.1 nM | Ki [5]: 33.9 nM
Structure (SMILES): CSCC[C@H](NC(=O)CNC(=O)[C@H](CO)NC(=O)[C@H](Cc1ccccc1)NC(=O)[C@H](CCCNC(=N)N)NC(=O)[C@H](Cc1c[nH]cn1)NC(=O)[C@H](Cc1ccccc1)NC(=O)[C@H](CC(N)=O)NC(=O)[C@H](CC(N)=O)NC(=O)[C@H](CC(C)C)NC(=O)[C@H](CC(N)=O)NC(=O)[C@H](CCCNC(=N)N)NC(=O)[C@H](Cc1c[nH]c2ccccc12)NC(=O)[C@H](Cc1ccc(O)cc1)NC(=O)[C@H](C)NC(=O)[C@H](CO)NC(=O)[C@H](CC(C)C)NC(=O)[C@@H](NC(=O)[C@@H]1CSSC[C@H](N)C(=O)N[C@@H](CO)C(=O)N[C@@H](CC(N)=O)C(=O)N[C@@H](CC(C)C)C(=O)N[C@@H](CO)C(=O)N[C@@H]([C@@H](C)O)C(=O)N1)C(C)C)C(=O)NCC(=O)N[C@@H](Cc1ccccc1)C(=O)NCC(=O)N1CCC[C@H]1C(=O)N[C@@H](CCC(=O)O)C(=O)N[C@H](C(=O)N1CCC[C@H]1C(N)=O)[C@@H](C)O [pCT] (H-CSNLSTCVLSAYWRNLNNFHRFSGMGFGPETP-NH2; disulfide 1-7)
